Measurements as given in US20220169654A1, “New Organic Compounds” (Servier Pharmaceuticals LLC, priority 2020, published 2022).

Experiments:
MAT2A homodimer = target: T1, MAT2A homodimer (Homo sapiens, UniProt P31153); test: MAT2A inhibition (biochemical, liberated phosphate, PiColorLock Gold); conditions: recombinant MAT2A homodimer; IC50 bin with Max Inh.; read-out: Enzyme Inhibition Bin
T1 construct: inferred from Ni sepharose purification with imidazole elution; made in house; host or cells: Sf9 insect cells, baculovirus (Bac to Bac, pFASTBAC1)
T1 sequence (P31153 whole entry): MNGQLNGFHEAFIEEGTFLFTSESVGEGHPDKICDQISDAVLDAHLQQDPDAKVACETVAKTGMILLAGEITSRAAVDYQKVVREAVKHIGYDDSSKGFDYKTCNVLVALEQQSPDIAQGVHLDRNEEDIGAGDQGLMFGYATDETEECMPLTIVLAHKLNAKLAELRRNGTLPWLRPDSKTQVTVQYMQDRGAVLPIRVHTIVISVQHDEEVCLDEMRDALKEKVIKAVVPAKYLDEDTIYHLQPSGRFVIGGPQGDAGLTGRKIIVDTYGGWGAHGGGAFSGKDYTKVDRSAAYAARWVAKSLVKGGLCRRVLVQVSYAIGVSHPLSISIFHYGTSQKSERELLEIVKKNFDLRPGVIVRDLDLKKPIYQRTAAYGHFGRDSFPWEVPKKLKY
Procedure, shortened: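 Enzyme at 4 μg/mL and compound equilibrated 60 min at 25 °C, then 60 min reaction after adding substrate mix (500 μM ATP, 400 μM methionine). Released phosphate quantified by colorimetric kit against a phosphate standard curve to give IC50. Secondary format used 1 μg/mL enzyme with 5 h incubation.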

HCT116 MTAP−/− = test: Inhibition of cellular proliferation, 4 days, Cell Titer Glo, HCT116 MTAP−/−; type: cell-based; conditions: Homo sapiens, HCT-116, 96 h, IC50 bin with Max Inh., read-out: 4 Day Relative Growth Inhibition (MTAP −/−)
Procedure, shortened: (§1)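 IC50 derived from blank-corrected ATP luminescence (Cell Titer Glo) expressed relative to within-plate 0.2% DMSO wells. Compound, as a 10-point 3-fold series, was added 24 h after seeding the MTAP+/+ or MTAP−/− HCT116 cells and incubated 4 days at 37° C./5% CO2.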

HCT116 MTAP+/+ = test: Inhibition of cellular proliferation, 4 days, Cell Titer Glo, HCT116 MTAP+/+; type: cell-based; conditions: Homo sapiens, HCT-116, 96 h, IC50 bin with Max Inh., read-out: 4 Day Relative Growth Inhibition (MTAP +/+)
Procedure, shortened: as §1

[1] = tested on: SAM in HCT116 human colon carcinoma cell line with MTAP gene deleted (MTAP −/−); test: Cellular assay of target engagement (SAM), LC-MS/MS, 72 hrs; type: cell-based; conditions: HCT-116, IC50 bin with Max Inh., read-out: Cell 72 h SAM Inhibition (MTAP −/−)
Procedure, shortened: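 SAM levels were quantified by LC-MS/MS (m/z 399.2→250.1, d3-SAM internal standard) from cold methanol/acetic acid extracts, yielding IC50. Compound was applied as a 10-point 3-fold series for 72 hrs to MTAP −/− HCT116 cells seeded 24 hours before.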

| Structure (SMILES) | IC50 (MAT2A homodimer) [nM] | IC50 (HCT116 MTAP−/−) [nM] | IC50 (HCT116 MTAP+/+) [nM] | IC50 [1] [nM] |
| --- | --- | --- | --- | --- |
| Cn1cc2cc(-n3nc4ncn(CC5CC5)c4c(-c4ccc(OC(F)F)cc4)c3=O)ccc2n1 [Example 186, 5-(cyclopropylmethyl)-4-[4-(difluoromethoxy)phenyl]-2-(2-methyl-2H-indazol-5-yl)-2H,3H,5H-imidazo[4,5-c]pyridazin-3-one] | < 100 | < 100 | 100 to 1000 | < 100 |
| Cc1ccc(-c2c(=O)n(-c3ccc4nn(C)cc4c3)nc3ncn(CC4CC4)c23)cn1 [Example 187, 5-(cyclopropylmethyl)-2-(2-methyl-2H-indazol-5-yl)-4-(6-methylpyridin-3-yl)-2,5-dihydro-3H-imidazo[4,5-c]pyridazin-3-one] | < 100 | 100 to 1000 | > 1000 | 100 to 1000 |
| Cn1cc2cc(-n3nc4ncn(CC5CC5)c4c(-c4ccc(C5CC5)cc4)c3=O)ccc2n1 [Example 192, 5-(cyclopropylmethyl)-4-(4-cyclopropylphenyl)-2-(2-methyl-2H-indazol-5-yl)-2,5-dihydro-3H-imidazo[4,5-c]pyridazin-3-one] | < 100 | < 100 | 100 to 1000 | < 100 |
| [2H]C([2H])([2H])Oc1ccc(-c2c(=O)n(-c3ccc4nn(C)cc4c3)nc3ncn(CC4CC4)c23)cc1 [Example 194, 5-(cyclopropylmethyl)-4-(4-(methoxy-d3)phenyl)-2-(2-methyl-2H-indazol-5-yl)-2,5-dihydro-3H-imidazo[4,5-c]pyridazin-3-one] | < 100 | < 100 | 100 to 1000 | < 100 |
| COc1ccc(-c2c(=O)n(-c3ccc4nc(C)n(C)c4c3)nc3ncn(CC4CC4)c23)cc1 [Example 195, 5-(cyclopropylmethyl)-2-(1,2-dimethyl-1H-benzo[d]imidazol-6-yl)-4-(4-methoxyphenyl)-2,5-dihydro-3H-imidazo[4,5-c]pyridazin-3-one] | < 100 | < 100 | > 1000 | < 100 |
| Cn1cc2cc(-n3nc4c(c(-c5ccc(OC(F)F)cc5)c3=O)n(CC3CC3)c(=O)n4C)ccc2n1 [Example 196, 5-(cyclopropylmethyl)-4-[4-(difluoromethoxy)phenyl]-7-methyl-2-(2-methyl-2H-indazol-5-yl)-2H,3H,5H,6H,7H-imidazolidino[4,5-c]pyridazine-3,6-dione] | < 100 | < 100 | 100 to 1000 | < 100 |
| Cn1cc2cc(-n3nc4[nH]c(=O)n(CC5CC5)c4c(-c4ccc(OC(F)F)cc4)c3=O)ccc2n1 [Example 197, 5-(cyclopropylmethyl)-4-(4-(difluoromethoxy)phenyl)-2-(2-methyl-2H-indazol-5-yl)-2,7-dihydro-3H-imidazo[4,5-c]pyridazine-3,6(5H)-dione] | < 100 | 100 to 1000 | 100 to 1000 | < 100 |
| Cn1cc2cc(-n3nc4c(c(-c5ccc(C6CC6)nc5)c3=O)n(CC3CC3)c(=O)n4C)ccc2n1 [Example 198, 5-(cyclopropylmethyl)-4-(6-cyclopropylpyridin-3-yl)-7-methyl-2-(2-methyl-2H-indazol-5-yl)-2,7-dihydro-3H-imidazo[4,5-c]pyridazine-3,6(5H)-dione] | < 100 | < 100 | > 1000 | < 100 |
| Cn1cc2cc(-n3nc4c(c(-c5ccc(Cl)cc5)c3=O)n(CC3CC3)c(=O)n4C)ccc2n1 [Example 199, 4-(4-chlorophenyl)-5-(cyclopropylmethyl)-7-methyl-2-(2-methyl-2H-indazol-5-yl)-2,7-dihydro-3H-imidazo[4,5-c]pyridazine-3,6(5H)-dione] | < 100 | < 100 | > 1000 | < 100 |
| Cn1cc2cc(-n3nc4c(c(-c5ccc(C6CC6)cc5)c3=O)n(CC3CC3)c(=O)n4C)ccc2n1 [Example 200, 5-(cyclopropylmethyl)-4-(4-cyclopropylphenyl)-7-methyl-2-(2-methyl-2H-indazol-5-yl)-2,7-dihydro-3H-imidazo[4,5-c]pyridazine-3,6(5H)-dione] | < 100 | < 100 | 100 to 1000 | < 100 |
| Cc1ccc(-c2c(=O)n(-c3ccc4nn(C)cc4c3)nc3c2n(CC2CC2)c(=O)n3C)cn1 [Example 202, 5-(cyclopropylmethyl)-7-methyl-2-(2-methyl-2H-indazol-5-yl)-4-(6-methylpyridin-3-yl)-2,7-dihydro-3H-imidazo[4,5-c]pyridazine-3,6(5H)-dione] | < 100 | 100 to 1000 | 100 to 1000 | 100 to 1000 |
| Cn1cc2cc(-n3nc4[nH]c(=O)n(CC5CC5)c4c(-c4ccc(Cl)cc4)c3=O)ccc2n1 [Example 205, 4-(4-chlorophenyl)-5-(cyclopropylmethyl)-2-(2-methyl-2H-indazol-5-yl)-2,7-dihydro-3H-imidazo[4,5-c]pyridazine-3,6(5H)-dione] | < 100 | 100 to 1000 | > 1000 | < 100 |

The next lines start with the values.

| IC50 (MAT2A homodimer) [nM] | IC50 (HCT116 MTAP−/−) [nM] | IC50 (HCT116 MTAP+/+) [nM] | IC50 [1] [nM] | Structure (SMILES) |
| --- | --- | --- | --- | --- |
| < 100 | 100 to 1000 | > 1000 | 100 to 1000 | Cn1cc2cc(-n3nc4c(S(N)(=O)=O)cn(CC5CC5)c4c(-c4ccc(C5CC5)nc4)c3=O)ccc2n1 [Example 185, 5-(cyclopropylmethyl)-4-(6-cyclopropylpyridin-3-yl)-2-(2-methyl-2H-indazol-5-yl)-3-oxo-3,5-dihydro-2H-pyrrolo[3,2-c]pyridazine-7-sulfonamide] |
| < 100 | < 100 | 100 to 1000 | < 100 | Cn1cc2cc(-n3nc4ncn(CC5CC5)c4c(-c4ccc(Cl)cc4)c3=O)ccc2n1 [Example 188, 4-(4-chlorophenyl)-5-(cyclopropylmethyl)-2-(2-methyl-2H-indazol-5-yl)-2,5-dihydro-3H-imidazo[4,5-c]pyridazin-3-one] |
| < 100 | 100 to 1000 | > 1000 | 100 to 1000 | Cn1cc2cc(-n3nc4ncn(CC5CC5)c4c(-c4ccc(OC(F)F)nc4)c3=O)ccc2n1 [Example 189, 5-(cyclopropylmethyl)-4-(6-(difluoromethoxy)pyridin-3-yl)-2-(2-methyl-2H-indazol-5-yl)-2,5-dihydro-3H-imidazo[4,5-c]pyridazin-3-one] |
| < 100 | < 100 | > 1000 | < 100 | Cn1cc2cc(-n3nc4ncn(CC5CC5)c4c(-c4ccc(C5CC5)nc4)c3=O)ccc2n1 [Example 190, 5-(cyclopropylmethyl)-4-(6-cyclopropylpyridin-3-yl)-2-(2-methyl-2H-indazol-5-yl)-2,5-dihydro-3H-imidazo[4,5-c]pyridazin-3-one] |
| < 100 | < 100 | > 1000 | < 100 | Cc1nc2nn(-c3ccc4nn(C)cc4c3)c(=O)c(-c3ccc(OC(F)F)cc3)c2n1CC1CC1 [Example 191, 5-(cyclopropylmethyl)-4-(4-(difluoromethoxy)phenyl)-6-methyl-2-(2-methyl-2H-indazol-5-yl)-2,5-dihydro-3H-imidazo[4,5-c]pyridazin-3-one] |
| < 100 | < 100 | > 1000 | < 100 | COc1ccc(-c2c(=O)n(-c3ccc4nn(C)cc4c3)nc3ncn(CC4CC4)c23)cc1 [Example 193, 5-(cyclopropylmethyl)-4-(4-methoxyphenyl)-2-(2-methyl-2H-indazol-5-yl)-2,5-dihydro-3H-imidazo[4,5-c]pyridazin-3-one] |
| < 100 | < 100 | 100 to 1000 | < 100 | [2H]C([2H])([2H])Oc1ccc(-c2c(=O)n(-c3ccc4nn(C)cc4c3)nc3c2n(CC2CC2)c(=O)n3C)cc1 [Example 201, 5-(cyclopropylmethyl)-4-(4-(methoxy-d3)phenyl)-7-methyl-2-(2-methyl-2H-indazol-5-yl)-2,7-dihydro-3H-imidazo[4,5-c]pyridazine-3,6(5H)-dione] |
| < 100 | < 100 | 100 to 1000 | < 100 | Cn1cc2cc(-n3nc4[nH]c(=O)n(CC5CC5)c4c(-c4ccc(C5CC5)nc4)c3=O)ccc2n1 [Example 203, 5-(cyclopropylmethyl)-4-(6-cyclopropylpyridin-3-yl)-2-(2-methyl-2H-indazol-5-yl)-2,7-dihydro-3H-imidazo[4,5-c]pyridazine-3,6(5H)-dione] |
| < 100 | < 100 | > 1000 | < 100 | Cn1cc2cc(-n3nc4[nH]c(=O)n(CC5CC5)c4c(-c4ccc(C5CC5)cc4)c3=O)ccc2n1 [Example 204, 5-(cyclopropylmethyl)-4-(4-cyclopropylphenyl)-2-(2-methyl-2H-indazol-5-yl)-2,7-dihydro-3H-imidazo[4,5-c]pyridazine-3,6(5H)-dione] |
